Source: patent US8415386B2, “Azolopyrrolone melanin concentrating hormone receptor-1 antagonists” (Bristol-Myers Squibb Company, priority 2008, dated 2013)
Structures can show the parent of a compound that is named as a salt.

The compounds below were run against T1, mutated (E4Q, A5T) hMCHR1 receptor (Homo sapiens, UniProt Q99705, A5T/E4Q) (assay: Radioligand Binding Assay for Assessment of MCHR1 Activity). Details: membranes from stably transfected HEK-293 cells; competition with [Phe13,[125I]Tyr19]-MCH.
T1 construct: expressed in transfected cells; host or cells: HEK-293 (stably transfected), membranes
T1 sequence (Q99705 whole entry E4Q/A5T): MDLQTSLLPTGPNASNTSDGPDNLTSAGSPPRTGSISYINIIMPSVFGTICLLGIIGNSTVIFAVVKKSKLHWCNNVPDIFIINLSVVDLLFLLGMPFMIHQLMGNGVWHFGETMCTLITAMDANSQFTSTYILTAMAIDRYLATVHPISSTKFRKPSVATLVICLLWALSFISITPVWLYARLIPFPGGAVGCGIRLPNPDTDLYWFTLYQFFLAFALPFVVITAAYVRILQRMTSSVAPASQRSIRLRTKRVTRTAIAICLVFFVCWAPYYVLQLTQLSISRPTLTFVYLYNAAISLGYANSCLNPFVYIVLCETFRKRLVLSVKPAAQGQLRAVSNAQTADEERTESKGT
Experimental: Radioligand Binding Assay for Assessment of MCHR1 Activity
Membranes from stably transfected HEK-293 cells expressing a mutated (E4Q, A5T) hMCHR1 receptor were prepared by dounce homogenization and differential centrifugation. Binding experiments were carried out with 0.5-1.0 ug of membrane protein incubated in a total of 0.2 ml in 25 mM HEPES (pH 7.4) with 10 mM MgCl2, 2 mM EGTA, and 0.1% BSA (Binding Buffer) for 90 min. For competition binding assays, reactions were carried out in the presence of with 0.06-0.1 nM [Phe^13, [^125I]Tyr^19]-MCH and increasing concentrations of unlabeled test molecules. Reactions were terminated by rapid vacuum filtration over 96 well-GFC UNIFILTER® plates pre-coated with 0.075 ml binding buffer containing 1% BSA, and washed 3 times with 0.4 ml of Phospho-buffered Saline (pH 7.4) containing 0.01% TX-100. Filters were dried, 0.05 ml microscint 20 was added to each well and radioactivity was subsequently quantified by scintillation counting on a TOPCOUNT® microplate scintillation counter (Packard). Inhibitory constants were determined by nonlinear least squares analysis using a four parameter logistic equation.
`COc1cc(N2Cc3nn(-c4ccc(Cl)cc4)cc3C2=O)ccc1OCC(C)OS(C)(=O)=O` (centres unmarked) [Example 4, 1-(4-(2-(4-Chlorophenyl)-4-oxopyrrolo[3,4-c]pyrazol-5(2H,4H,6H)-yl)-2-methoxyphenoxy)propan-2-yl methanesulfonate] was tested, and the Ki was 41.1 nM.
`COc1cc(N2Cc3cn(-c4ccc(Cl)cc4)nc3C2=O)ccc1OC[C@H](O)C1CC1` [Example 9, (R)-2-(4-Chlorophenyl)-5-(4-(2-cyclopropyl-2-hydroxyethoxy)-3-methoxyphenyl)-4,5-dihydropyrrolo[3,4-c]pyrazol-6(2H)-one] gave a Ki of 8.6 nM.
`COc1cc(N2Cc3nn(-c4ccc(Cl)cc4)nc3C2=O)ccc1OCCN1CCCC1` [Example 12, 2-(4-Chlorophenyl)-5-(3-methoxy-4-(2-(pyrrolidin-1-yl)ethoxy)phenyl)-5,6-dihydropyrrolo[3,4-d][1,2,3]triazol-4(2H)-one] gave a Ki of 2.3 nM.
`COc1cc(N2Cc3cn(-c4ccc(Cl)cc4)nc3C2=O)ccc1OCCN1CCCC1` [Example 15, 2-(4-Chlorophenyl)-5-(3-methoxy-4-(2-(pyrrolidin-1-yl)ethoxy)phenyl)-4,5-dihydropyrrolo[3,4-c]pyrazol-6(2H)-one, TFA] was tested, and the Ki was 0.7 nM.
`O=C1c2nn(-c3ccc(Cl)cc3)cc2CN1c1ccc(N2CCC(N3CCCC3)CC2)nc1` [Example 29, 2-(4-Chlorophenyl)-5-(6-(4-(pyrrolidin-1-yl)piperidin-1-yl)pyridin-3-yl)-4,5-dihydropyrrolo[3,4-c]pyrazol-6(2H)-one] was tested, and the Ki was 17.1 nM.
Work on `COc1cc(N2Cc3nn(-c4ccc(Cl)cc4)cc3C2=O)ccc1OC[C@H](O)C1CC1` [Example 1, (R)-2-(4-Chlorophenyl)-5-(4-(2-cyclopropyl-2-hydroxyethoxy)-3-methoxyphenyl)-5,6-dihydropyrrolo[3,4-c]pyrazol-4(2H)-one] yielded a Ki of 41.4 nM.
`CNC1CCN(c2ccc(N3Cc4cn(-c5ccc(Cl)cc5)nc4C3=O)cn2)C1` (centres unmarked) [Example 16, 2-(4-Chlorophenyl)-5-(6-(3-(methylamino)pyrrolidin-1-yl)pyridin-3-yl)-4,5-dihydropyrrolo[3,4-c]pyrazol-6(2H)-one, 2 TFA] showed a Ki of 2.5 nM.
In the case of `CN(C(=O)OC(C)(C)C)C1CCN(c2ccc(N3Cc4cn(-c5ccc(Cl)cc5)nc4C3=O)cn2)C1` (centres unmarked) [Example 16G, tert-Butyl 1-(5-(2-(4-chlorophenyl)-6-oxopyrrolo[3,4-e]pyrazol-5(2H,4H,6H)-yl)pyridin-2-yl)pyrrolidin-3-yl(methyl)carbamate], the Ki is reported as 3.6 nM.
In the case of `COc1cc(N2Cc3cn(-c4ccc(Cl)cc4)nc3C2=O)ccc1OC[C@H](OC(=O)[C@@H](N)C(C)C)C1CC1` [Example 10, (S)-((R)-2-(4-(2-(4-Chlorophenyl)-6-oxopyrrolo[3,4-c]pyrazol-5(2H,4H,6H)-yl)-2-methoxyphenoxy)-1-cyclopropylethyl) 2-amino-3-methylbutanoate, TFA salt], the Ki is reported as 2.7 nM.
In the case of `CN(C(=O)OC(C)(C)C)[C@H]1CCN(c2ccc(N3Cc4cn(-c5ccc(Cl)cc5)nc4C3=O)cn2)C1` [Example 20A, (S)-tert-Butyl 1-(5-(2-(4-chlorophenyl)-6-oxopyrrolo[3,4-c]pyrazol-5(2H,4H,6H)-yl)pyridin-2-yl)pyrrolidin-3-yl(methyl)carbamate], the Ki is reported as 784 nM.
Work on `CC(C)(C)NC1CCN(c2ccc(N3Cc4cn(-c5ccc(Cl)cc5)nc4C3=O)cn2)C1` (centres unmarked) [Example 24, 5-(6-(3-(tert-Butylamino)pyrrolidin-1-yl)pyridin-3-yl)-2-(4-chlorophenyl)-4,5-dihydropyrrolo[3,4-c]pyrazol-6(2H)-one] yielded a Ki of 2.7 nM.
`COc1ccc(N2Cc3cn(-c4ccc(Cl)cc4)nc3C2=O)cc1OC` [Example 7, 2-(4-Chlorophenyl)-5-(3,4-dimethoxyphenyl)-4,5-dihydropyrrolo[3,4-c]pyrazol-6(2H)-one] gave a Ki of 49.4 nM.
For `O=C1c2nn(-c3ccc(Cl)cc3)cc2CN1c1ccc(N2CC[C@@H](O)C2)nc1` [Example 11, (R)-2-(4-Chlorophenyl)-5-(6-(3-hydroxypyrrolidin-1-yl)pyridin-3-yl)-4,5-dihydropyrrolo[3,4-c]pyrazol-6(2H)-one], the Ki was 81 nM.
`CN(C)[C@H]1CCN(c2ccc(N3Cc4cn(-c5ccc(Cl)cc5)nc4C3=O)cn2)C1` [Example 17, (S)-2-(4-Chlorophenyl)-5-(6-(3-(dimethylamino)pyrrolidin-1-yl)pyridin-3-yl)-4,5-dihydropyrrolo[3,4-c]pyrazol-6(2H)-one, 2 HCl] was tested, and the Ki was 0.9 nM.
Compound `COc1cc(N2Cc3cn(-c4ccc(Cl)cc4)nc3C2=O)ccc1OCC(C)O` (centres unmarked) [Example 6, 2-(4-Chlorophenyl)-5-(4-(2-hydroxypropoxy)-3-methoxyphenyl)-4,5-dihydropyrrolo[3,4-c]pyrazol-6(2H)-one] has a Ki of 13.2 nM.
In the case of `COc1cc(N2Cc3nn(-c4ccc(Cl)cc4)nc3C2=O)ccc1OCC(O)C1CC1` (centres unmarked) [Example 14, 2-(4-Chlorophenyl)-5-(4-(2-cyclopropyl-2-hydroxyethoxy)-3-methoxyphenyl)-5,6-dihydropyrrolo[3,4-d][1,2,3]triazol-4(2H)-one], the Ki is reported as 113 nM.
With `O=C1c2nn(-c3ccc(Cl)cc3)cc2CN1c1ccc(N2CCC(N3CCCC3)C2)nc1` (centres unmarked) [Example 28, 5-(6-(1,3′-Bipyrrolidin-1′-yl)pyridin-3-yl)-2-(4-chlorophenyl)-4,5-dihydropyrrolo[3,4-c]pyrazol-6(2H)-one] the Ki was 0.9 nM.
With `CN(C)[C@@H]1CCN(c2ccc(N3Cc4cn(-c5ccc(Cl)cc5)nc4C3=O)cn2)C1` [Example 18, HCl] the Ki was 0.7 nM.
In the case of `CN[C@H]1CCN(c2ccc(N3Cc4cn(-c5ccc(Cl)cc5)nc4C3=O)cc2OC)C1` [Example 42, (S)-2-(4-Chlorophenyl)-5-(3-methoxy-4-(3-(methylamino)pyrrolidin-1-yl)phenyl)-4,5-dihydropyrrolo[3,4-c]pyrazol-6(2H)-one, 2 TFA], the Ki is reported as 0.5 nM.
`COc1cc(N2Cc3nn(-c4ccc(Cl)cc4)nc3C2=O)ccc1OCC(C)(C)O` [Example 13, 2-(4-Chlorophenyl)-5-(4-(2-hydroxy-2-methylpropoxy)-3-methoxyphenyl)-5,6-dihydropyrrolo[3,4-d][1,2,3]triazol-4(2H)-one] showed a Ki of 34.3 nM.
`CN[C@H]1CCN(c2ncc(N3Cc4cn(-c5ccc(Cl)cc5)nc4C3=O)cn2)C1` [Example 47, (S)-2-(4-Chlorophenyl)-5-(2-(3-(methylamino)pyrrolidin-1-yl)pyrimidin-5-yl)-4,5-dihydropyrrolo[3,4-c]pyrazol-6(2H)-one] showed a Ki of 32.7 nM.
With `COc1cc(N2Cc3cn(-c4ccc(Cl)cc4)nc3C2=O)ccc1OCC(C)OS(C)(=O)=O` (centres unmarked) [Example 5, 1-(4-(2-(4-Chlorophenyl)-6-oxopyrrolo[3,4-c]pyrazol-5(2H,4H,6H)-yl)-2-methoxyphenoxy)propan-2-yl methanesulfonate] the Ki was 13.7 nM.
In the case of `COc1cc(N2Cc3nn(-c4ccc(Cl)cc4)nc3C2=O)ccc1OCC(=O)C1CC1` [Example 14B, 2-(4-Chlorophenyl)-5-(4-(2-cyclopropyl-2-oxoethoxy)-3-methoxyphenyl)-5,6-dihydropyrrolo[3,4-d][1,2,3]triazol-4(2H)-one], the Ki is reported as 304 nM.
`CN[C@@H]1CCN(c2ccc(N3Cc4cn(-c5ccc(Cl)cc5)nc4C3=O)cn2)C1` [Example 19, (R)-2-(4-Chlorophenyl)-5-(6-(3-(methylamino)pyrrolidin-1-yl)pyridin-3-yl)-4,5-dihydropyrrolo[3,4-c]pyrazol-6(2H)-one, 2 HCl] showed a Ki of 1.3 nM.
Work on `CN[C@H]1CCN(c2ccc(N3Cc4cn(-c5ccc(Cl)cc5)nc4C3=O)cn2)C1` [Example 20, (S)-2-(4-Chlorophenyl)-5-(6-(3-(methylamino)pyrrolidin-1-yl)pyridin-3-yl)-4,5-dihydropyrrolo[3,4-c]pyrazol-6(2H)-one, 2 HCl] yielded a Ki of 0.9 nM.
Compound `COc1cc(N2Cc3cn(-c4ccc(Cl)cc4)nc3C2=O)ccc1OCC(C)(C)O` [Example 8, 2-(4-Chlorophenyl)-5-(4-(2-hydroxy-2-methylpropoxy)-3-methoxyphenyl)-4,5-dihydropyrrolo[3,4-c]pyrazol-6(2H)-one] has a Ki of 12.5 nM.
For `COc1cc(N2Cc3nn(-c4ccc(Cl)cc4)cc3C2=O)ccc1OCC(C)(C)O` [Example 3, 2-(4-Chlorophenyl)-5-(4-(2-hydroxy-2-methylpropoxy)-3-methoxyphenyl)-5,6-dihydropyrrolo[3,4-c]pyrazol-4(2H)-one], the Ki was 106 nM.
In the case of `CN(C(=O)OC(C)(C)C)[C@@H]1CCN(c2ccc(N3Cc4cn(-c5ccc(Cl)cc5)nc4C3=O)cn2)C1` [Example 19A, (R)-tort-Butyl 1-(5-(2-(4-chlorophenyl)-6-oxopyrrolo[3,4-c]pyrazol-5(2H,4H,6H)-yl)pyridin-2-yl)pyrrolidin-3-yl(methyl)carbamate], the Ki is reported as 184 nM.
For `COc1cc(N2Cc3nn(-c4ccc(Cl)cc4)cc3C2=O)ccc1OCC(C)O` (centres unmarked) [Example 2, 2-(4-Chlorophenyl)-5-(4-(2-hydroxypropoxy)-3-methoxyphenyl)-5,6-dihydropyrrolo[3,4-c]pyrazol-4(2H)-one], the Ki was 334 nM.
